Test results reported in patent US9370507B2, “Pyridonyl guanidine F1F0-ATPase inhibitors and therapeutic uses thereof” (Lycera Corporation, priority 2010, dated 2016).

Key:
Ramos cells = assay: Cytotoxicity in Ramos cells; format: cell-based; details: Homo sapiens, read-out: Ramos Cell EC50
Experimental: (§1) The compounds listed in Table 4 were tested for activity against F1F0-ATPase by measuring the ability of the compounds to inhibit ATP synthesis. In addition, the compounds were assessed for cytotoxicity in Ramos cells Inhibition of F1F0-ATPase activity in synthesizing ATP and cytotoxicity in Ramos cells were measured according to the procedures described in K. M. Johnson et al. Chemistry & Biology 2005, 12, 485-496.

F1F0-ATPase = biological target: T1, F1F0-ATPase (Bos taurus, UniProt P13621); assay: Inhibition of F1F0-ATPase activity in synthesizing ATP; format: biochemical; details: inhibition of ATP synthesis; read-out: ATP Syn IC50
T1 construct: from tissue
Experimental: as §1

Row | Compound | EC50 (Ramos cells) [µM] | IC50 (F1F0-ATPase) [µM]
1 | O=C(/N=C(\Nc1cccc(C(F)(F)F)c1)Nc1cccc(O)n1)c1ccc(C(F)(F)F)cc1 [Compound A-1] | < 10 | < 10
2 | O=C(/N=C(/Nc1cc(F)cc(Cl)c1)Nc1cccc(O)n1)c1ccc(C(F)(F)F)cc1 [Compound A-2] | < 10 | < 10
3 | O=C(/N=C(/Nc1cccc(C(F)(F)F)c1)Nc1cccc(O)n1)c1ccc(F)c(F)c1 [Compound A-3] | < 10 | < 10
4 | O=C(/N=C(/Nc1cc(F)cc(Cl)c1)Nc1cccc(O)n1)c1ccc(F)c(F)c1 [Compound A-4] | < 10 | < 10
5 | O=C(/N=C(/Nc1ccc(F)c(Cl)c1)Nc1cccc(O)n1)c1ccc(C(F)(F)F)cc1 [Compound A-5] | < 10 | < 10
6 | O=C(/N=C(\Nc1cccc(O)n1)Nc1ccccc1C1CC1)c1ccc(C(F)(F)F)cc1 [Compound A-6] | < 10 | < 10
7 | O=C(N/C(=N\c1cccc(O)n1)Nc1cccc(Cl)c1)c1ccc(C(F)(F)F)cc1 [Compound A-7] | < 10 | < 10
8 | O=C(N/C(=N\c1cccc(O)n1)Nc1cc(F)cc(Cl)c1)c1ccc(Cl)cc1 [Compound A-8] | < 10 | < 10
9 | O=C(N/C(=N\c1cccc(O)n1)Nc1ccc(F)c(Cl)c1)c1ccc(F)c(F)c1 [Compound A-9] | > 10 | > 10
10 | CN(/C(=N\C(=O)c1ccc(F)c(F)c1)Nc1cccc(O)n1)c1ccc(F)c(Cl)c1 [Compound A-10] | > 10 | > 10
11 | O=C(/N=C(\Nc1cccc(O)n1)Nc1ccc(F)cc1C1CC1)c1ccc(F)c(F)c1 [Compound A-11] | < 10 | < 10
12 | O=C(/N=C(\Nc1cccc(O)n1)Nc1ccc(F)cc1C1CC1)c1ccc(C(F)(F)F)cc1 [Compound A-12] | < 10 | < 10
13 | CC(C)(C)c1ccccc1N/C(=N/C(=O)c1ccc(F)c(F)c1)Nc1cccc(O)n1 [Compound A-13] | < 10 | < 10
14 | CC(C)(C)c1ccccc1N/C(=N/C(=O)c1ccc(C(F)(F)F)cc1)Nc1cccc(O)n1 [Compound A-14] | < 10 | < 10
15 | O=C(/N=C(/Nc1cccc(C(F)(F)F)c1)Nc1cccc(O)n1)c1ccc(Cl)cc1 [Compound A-15] | < 10 | < 10
16 | O=C(/N=C(/Nc1cccc(C(F)(F)F)c1)Nc1cccc(O)n1)c1cccc(Cl)c1 [Compound A-16] | < 10 | < 10
17 | O=C(/N=C(/Nc1cccc(C(F)(F)F)c1)Nc1cccc(O)n1)c1cccc(C(F)(F)F)c1 [Compound A-17] | < 10 | < 10
18 | O=C(/N=C(/Nc1cccc(C(F)(F)F)c1)Nc1cccc(O)n1)c1ccc(Cl)c(F)c1 [Compound A-18] | < 10 | < 10
19 | O=C(/N=C(/Nc1cccc(Cl)c1)Nc1cccc(O)n1)c1cccc(Cl)c1 [Compound A-19] | < 10 | < 10
20 | O=C(/N=C(/Nc1cccc(Cl)c1)Nc1cccc(O)n1)c1cccc(C(F)(F)F)c1 [Compound A-20] | < 10 | < 10
21 | O=C(/N=C(/Nc1cc(F)cc(Cl)c1)Nc1cccc(O)n1)c1cccc(Cl)c1 [Compound A-21] | < 10 | < 10
22 | O=C(/N=C(/Nc1cc(F)cc(Cl)c1)Nc1cccc(O)n1)c1cccc(C(F)(F)F)c1 [Compound A-22] | < 10 | < 10
23 | O=C(/N=C(/Nc1cc(F)cc(Cl)c1)Nc1cccc(O)n1)c1ccc(Cl)c(F)c1 [Compound A-23] | < 10 | < 10
24 | O=C(/N=C(/Nc1cccc(Cl)c1)Nc1cccc(O)n1)c1ccc(F)c(F)c1 [Compound A-24] | < 10 | < 10
25 | O=C(/N=C(/Nc1cccc(Cl)c1)Nc1cccc(O)n1)c1ccc(Cl)cc1 [Compound A-25] | > 10 | < 10
26 | O=C(/N=C(/Nc1cccc(C2CC2)c1)Nc1cccc(O)n1)c1ccc(C(F)(F)F)cc1 [Compound A-26] | < 10 | < 10
27 | O=C(/N=C(/NCc1ccc(F)c(Cl)c1)Nc1cccc(O)n1)c1ccc(F)c(F)c1 [Compound A-27] | < 10 | < 10

Row | Compound | EC50 (Ramos cells) [µM] | IC50 (F1F0-ATPase) [µM]
28 | O=C(/N=C(/NCc1ccc(F)c(Cl)c1)Nc1cccc(O)n1)c1ccc(C(F)(F)F)cc1 [Compound A-28] | < 10 | < 10
29 | CC1CCC(N/C(=N/C(=O)c2ccc(C(F)(F)F)cc2)Nc2cccc(O)n2)CC1 (stereo not drawn) [Compound A-29] | < 10 | < 10
30 | O=C(/N=C(\Nc1cccc(O)n1)NC1CCC(F)(F)CC1)c1ccc(C(F)(F)F)cc1 [Compound A-30] | < 10 | < 10
31 | O=C(/N=C(\Nc1cccc(O)n1)NC1CCC(F)(F)CC1)c1ccc(F)c(F)c1 [Compound A-31] | < 10 | < 10
32 | O=C(/N=C(/NCc1ccccc1C(F)(F)F)Nc1cccc(O)n1)c1ccc(C(F)(F)F)cc1 [Compound A-32] | < 10 | < 10
33 | O=C(/N=C(/NCc1cccc(C(F)(F)F)c1)Nc1cccc(O)n1)c1ccc(C(F)(F)F)cc1 [Compound A-33] | < 10 | < 10
34 | O=C(/N=C(/NCc1ccc(C(F)(F)F)cc1)Nc1cccc(O)n1)c1ccc(C(F)(F)F)cc1 [Compound A-34] | < 10 | < 10
35 | O=C(/N=C(/NCc1ccc(C(F)(F)F)cc1)Nc1cccc(O)n1)c1ccc(F)c(F)c1 [Compound A-35] | < 10 | < 10
36 | O=C(/N=C(/NCc1ccc(F)c(F)c1)Nc1cccc(O)n1)c1ccc(C(F)(F)F)cc1 [Compound A-36] | < 10 | < 10
37 | O=C(/N=C(/NCc1cc(F)c(F)c(F)c1)Nc1cccc(O)n1)c1ccc(C(F)(F)F)cc1 [Compound A-37] | < 10 | < 10
38 | O=C(/N=C(/NCc1c(F)cc(F)cc1F)Nc1cccc(O)n1)c1ccc(C(F)(F)F)cc1 [Compound A-38] | < 10 | < 10
39 | O=C(/N=C(\Nc1cccc(O)n1)NC1CCCCCC1)c1ccc(C(F)(F)F)cc1 [Compound A-39] | < 10 | < 10
40 | O=C(/N=C(/NCC1CC1)Nc1cccc(O)n1)c1ccc(C(F)(F)F)cc1 [Compound A-40] | < 10 | < 10
41 | CC(C)(C)N/C(=N/C(=O)c1ccc(C(F)(F)F)cc1)Nc1cccc(O)n1 [Compound A-41] | < 10 | < 10
42 | O=C(/N=C(/NCC1CCCCC1)Nc1cccc(O)n1)c1ccc(C(F)(F)F)cc1 [Compound A-42] | < 10 | < 10
43 | CC1CCCCC1NC(=NC(=O)c1ccc(C(F)(F)F)cc1)Nc1cccc(O)n1 (stereo not drawn) [Compound A-43] | > 10 | < 10
44 | CC(C)(C)N/C(=N\C(=O)c1ccc(Cl)c(F)c1)Nc1cccc(O)n1 [Compound A-44] | < 10 | < 10
45 | CC(C)(C)N/C(=N\C(=O)c1ccc(F)c(F)c1)Nc1cccc(O)n1 [Compound A-45] | < 10 | < 10
46 | CC1(N/C(=N\C(=O)c2ccc(C(F)(F)F)cc2)Nc2cccc(O)n2)CC1 [Compound A-46] | < 10 | < 10
47 | CC1(N/C(=N\C(=O)c2ccc(C(F)(F)F)cc2)Nc2cccc(O)n2)CCC1 [Compound A-47] | < 10 | < 10
48 | O=C(/N=C(\Nc1cccc(O)n1)NC1CC1)c1ccc(C(F)(F)F)cc1 [Compound A-48] | > 10 | < 10
49 | O=C(/N=C(/Nc1cccc(O)n1)NC1CC1)c1ccc(F)c(F)c1 [Compound A-49] | > 10 | > 10
50 | O=C(/N=C(/Nc1cccc(O)n1)NC1CC1)c1ccc(Cl)c(F)c1 [Compound A-50] | > 10 | < 10
51 | CC(C)(N/C(=N/C(=O)c1ccc(C(F)(F)F)cc1)Nc1cccc(O)n1)C(F)(F)F [Compound A-51] | < 10 | < 10
52 | O=C(/N=C(/NCC(F)(F)F)Nc1cccc(O)n1)c1ccc(C(F)(F)F)cc1 [Compound A-52] | < 10 | < 10
53 | Cc1cc(CN/C(=N/C(=O)c2ccc(C(F)(F)F)cc2)Nc2cccc(O)n2)no1 [Compound A-53] | < 10 | < 10
54 | Cc1cc(CN/C(=N/C(=O)c2ccc(F)c(F)c2)Nc2cccc(O)n2)no1 [Compound A-54] | > 10 | < 10
